Reference: patent publication US5547965A, “Use of substituted amines for the treatment of brain function disorders” (Bayer Aktiengesellschaft, priority 1994, dated 1996)

What follows are compounds tested against Nicotine receptor (assay: [3H]-cytisine displacement in rat brain membrane preparation). Settings: negative common logarithm of the concentration giving 50% displacement of specifically bound [3H]-cytisine; rat brain homogenate, 22° C., 60 min.
Type: binding
Procedure: The effect on nicotinergic receptors of the central nervous system is determined by a generally customary standard method for receptor binding studies (E. C. Hulme, Editor, Receptor-Ligand Interactions, Oxford University Press, 1992, pp 1-458). The binding was measured here by displacement of [^3 H]-cytisine by the active compounds in the rat brain membrane preparation.
Rats were sacrificed by decapitation and the entire brain was then removed immediately and processed. All following steps were carried out with cooling to 4° C. The brain was homogenized in sucrose solution (110 g of sucrose/l; 20 ml of solution per 1 g of brain mass) with the aid of a mixer. Coarse constituents were removed by centrifugation of the homogenate for 10 min at 1200 g and subsequent filtration through 5 layers of muslin. The suspension which remained (called homogenate in the following) was frozen and stored at -20° C. until use.
Buffer A for the test batch: 100 mM K2 HPO4 /KH2 PO4, pH 7.4, containing 1 g/ of bovine serum albumin.
For the determination of the displacement of [^3 H]-cytisine by the active compounds the following batch (1 ml total volume) was mixed together: 250 μl of thawed homogenate, 600 μl of buffer, 100 μl of active compound solution in buffer A (containing a concentration series in dilution steps with a factor of 10 between a maximum of 10^-2 M and a minimum of 10^-10 M of active compound, and 2 μl of methanol, from a concentrated stock solution of the active compounds), 50 μl of (^3 H)-cytisine solution in buffer A (containing 1.48 pmol of (^3 H)-cytisine, corresponding to 1.67 KBq, and 5 μl of ethanol, from a concentrated stock solution). In controls which contained no homogenate or no active compound, the missing volume was replaced by buffer A.
The batches were incubated at 22° C. in a shaking water bath for 60 min. To end incubation of the batches, 3 ml of ice-cold buffer A was added in each case and the whole solution was rapidly filtered through GF/C glass fibre filters. The filters were premoistened with a 1% strength solution of Prosil in buffer A. The filters were also washed twice with 3 ml of ice-cold buffer A each time. The filters were then removed and the radioactivity bound to the filters was determined in a liquid scintillation apparatus after addition of 10 ml of suitable scintillation cocktail.
All values were determined in duplicate and averaged. The concentration of active compound which leads to a 50% displacement of the specifically bound [^3 H]-cytisine was calculated from the concentration series by a logit transformation or by the 4-parameter logistic model (T. Chard; An Introduction to Radioimmunoassay and Related Techniques; Elsevier, Amsterdam, 1990; pp 613-171; statistical assessment by computer). The negative common logarithm of this concentration is called the pI50 in the following.

Structure (SMILES) | pI30
CCCC(c1ccc(F)cc1)N1CNC(NCc2ccc(Cl)nc2)=C([N+](=O)[O-])C1 (stereo not shown) [Example 1] | 6.6
O=[N+]([O-])C=C1NCCN1Cc1ccc(Cl)c(F)c1 [Example 2] | 5.3
CC(=O)NCCN1CC([N+](=O)[O-])=C2N(Cc3ccc(Cl)nc3)CCN2C1 [Example 3] | 6.5
COc1cccc(CN2CCN(Cc3ccc(Cl)nc3)C2=N[N+](=O)[O-])c1 [Example 4] | 5.1
CC(=NC#N)N(C)Cc1ccc(Cl)nc1 [Example 5] | 6.2
NC(=N[N+](=O)[O-])N1CCN(Cc2ccc(Cl)nc2)C1 [Example 6] | 4.8
O=[N+]([O-])C=C1NCCN1Cc1cccnc1 [Example 7] | 5.9
O=[N+]([O-])C=C1NCCN1Cc1ccncc1 [Example 8] | 4.6
Cc1ccc(CN2CCNC2=C[N+](=O)[O-])cn1 [Example 9] | 6.4
O=[N+]([O-])C=C1NCCN1Cc1cnc(Cl)s1 [Example 10] | 6.2
N#CC=C1NCCN1Cc1ccc(Cl)nc1 [Example 11] | 5.8
O=[N+]([O-])N=C1NCCN1Cc1cccnc1 [Example 12] | 5.7
N#CC=C1CCCN1Cc1ccc(Cl)nc1 [Example 13] | 6.6
O=[N+]([O-])C=C1OCCN1Cc1ccc(Cl)nc1 [Example 14] | 6.4
CN1CN(C)C(=N[N+](=O)[O-])N(Cc2ccc(Cl)nc2)C1 [Example 15] | 5.2
O=[N+]([O-])C=C1NCCN1c1ccc(Cl)nc1 [Example 16] | 4.6

The compounds below were run on rats (assay: rat forced swimming test). Settings: po, 5 min, period of immobility over 5 minutes, administered between the two swimming tests.
Type: in vivo
Text: The activity of the substituted amines described in the treatment and prevention of affective disorders is confirmed with the aid of the "rat forced swimming test". This behavioural model was described for the first time by R. D. Porsolt et al. (Nature 266; 730, 1977) and today is a generally recognized in-vivo screening model for the discovery of new antidepressants. It is based on the observation that rats in a hopeless situation remain in an immobile position ("behavioural despair"). In a preliminary test, young adult rats (3-4 months old) are placed individually for 20 minutes in glass cylinders (height 40 cm, diameter 20 cm) which are filled with water to a height of 15 cm. 24 hours after this preliminary test, the animals are again transferred to the cylinders and the period of immobility is measured over a space of time of 5 minutes.
The substituted amines described are administered in the time interval between the two swimming tests. Controls receive the vehicle.

Structure (SMILES) | ED50 [mg/kg]
CC(=O)NCCN1CC([N+](=O)[O-])=C2N(Cc3ccc(Cl)nc3)CCN2C1 [Example 3] | 4.1
O=[N+]([O-])C=C1NCCN1Cc1cnc(Cl)s1 [Example 10] | 1.5
O=[N+]([O-])N=C1NCCN1Cc1cccnc1 [Example 12] | 2.5
